From publication PMC7759869 (Biomedicines, 2020)

How the values were obtained:
MET = details: read-out: IC50 for MET; estimated; cited from earlier work
FMO5 = biological target: T1, FMO5 (Homo sapiens, UniProt P49326); assay: Oxidation of cabozantinib by recombinant FMO5; format: in vitro ADME; details: human recombinant enzyme, data not shown
T1 construct: purchased Gentest Corp., Woburn, MA, USA; host or cells: insect cells (baculovirus)
T1 sequence (P49326 1-533): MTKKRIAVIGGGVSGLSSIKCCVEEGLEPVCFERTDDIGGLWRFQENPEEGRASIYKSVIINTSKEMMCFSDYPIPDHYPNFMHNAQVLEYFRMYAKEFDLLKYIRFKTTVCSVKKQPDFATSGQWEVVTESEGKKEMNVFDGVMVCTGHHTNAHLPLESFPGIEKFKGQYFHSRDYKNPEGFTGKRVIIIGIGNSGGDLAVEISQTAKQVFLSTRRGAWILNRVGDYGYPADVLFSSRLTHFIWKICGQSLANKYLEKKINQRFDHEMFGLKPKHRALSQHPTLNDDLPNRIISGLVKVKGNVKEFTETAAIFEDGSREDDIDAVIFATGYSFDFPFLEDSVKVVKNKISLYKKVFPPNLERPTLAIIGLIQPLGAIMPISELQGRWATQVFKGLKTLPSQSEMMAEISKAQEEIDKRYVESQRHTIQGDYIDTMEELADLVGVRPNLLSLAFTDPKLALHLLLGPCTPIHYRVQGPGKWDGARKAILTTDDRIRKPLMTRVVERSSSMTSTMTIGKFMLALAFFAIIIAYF

[1] = parameters: method as in earlier work; details: cited from earlier work
[2] = parameters: concentration or dose not given beside the values; details: metastatic renal cell carcinoma patients; cited from earlier work
aldehyde oxidase = biological target: T2, aldehyde oxidase (Homo sapiens, UniProt Q06278); assay: Oxidation of cabozantinib by recombinant aldehyde oxidase; format: in vitro ADME; details: human recombinant enzyme, data not shown
T2 construct: purchased Gentest Corp., Woburn, MA, USA; host or cells: insect cells (baculovirus)
T2 sequence (Q06278 1-1338): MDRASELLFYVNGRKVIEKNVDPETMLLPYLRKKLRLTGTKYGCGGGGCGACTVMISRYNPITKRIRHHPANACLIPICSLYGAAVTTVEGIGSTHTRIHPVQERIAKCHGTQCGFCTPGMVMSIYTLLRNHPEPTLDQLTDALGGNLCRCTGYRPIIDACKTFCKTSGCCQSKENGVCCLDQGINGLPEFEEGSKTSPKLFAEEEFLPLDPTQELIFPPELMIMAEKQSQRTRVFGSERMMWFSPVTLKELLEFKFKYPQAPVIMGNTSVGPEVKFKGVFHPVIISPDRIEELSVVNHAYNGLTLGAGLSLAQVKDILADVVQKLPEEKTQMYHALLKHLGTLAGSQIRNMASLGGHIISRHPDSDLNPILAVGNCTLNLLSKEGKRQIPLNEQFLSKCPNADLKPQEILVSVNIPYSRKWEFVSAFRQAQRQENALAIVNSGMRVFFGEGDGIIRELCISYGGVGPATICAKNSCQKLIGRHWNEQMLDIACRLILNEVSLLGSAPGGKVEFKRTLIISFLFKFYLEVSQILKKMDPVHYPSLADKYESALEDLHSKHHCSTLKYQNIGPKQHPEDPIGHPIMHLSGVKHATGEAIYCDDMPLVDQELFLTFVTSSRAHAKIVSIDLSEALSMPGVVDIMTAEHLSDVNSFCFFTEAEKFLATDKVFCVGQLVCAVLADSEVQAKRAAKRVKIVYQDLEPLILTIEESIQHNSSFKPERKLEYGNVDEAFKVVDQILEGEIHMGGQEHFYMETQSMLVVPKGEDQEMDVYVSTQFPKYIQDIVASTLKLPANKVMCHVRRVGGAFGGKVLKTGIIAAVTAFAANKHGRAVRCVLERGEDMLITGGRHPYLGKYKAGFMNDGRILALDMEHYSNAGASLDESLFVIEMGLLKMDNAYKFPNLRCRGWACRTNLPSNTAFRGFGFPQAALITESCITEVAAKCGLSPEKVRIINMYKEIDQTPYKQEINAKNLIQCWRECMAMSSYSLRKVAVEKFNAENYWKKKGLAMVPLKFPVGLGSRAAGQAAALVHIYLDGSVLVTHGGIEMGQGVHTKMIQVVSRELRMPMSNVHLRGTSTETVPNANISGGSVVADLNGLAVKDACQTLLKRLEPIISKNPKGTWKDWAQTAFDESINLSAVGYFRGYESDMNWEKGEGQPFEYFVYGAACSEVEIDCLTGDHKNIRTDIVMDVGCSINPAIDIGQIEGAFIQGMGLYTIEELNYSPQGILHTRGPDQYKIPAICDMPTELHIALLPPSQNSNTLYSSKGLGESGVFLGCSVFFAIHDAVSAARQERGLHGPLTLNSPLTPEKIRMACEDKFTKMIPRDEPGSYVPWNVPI

VEGFR2 = details: read-out: IC50 for VEGFR2; estimated; cited from earlier work

COc1cc2nccc(Oc3ccc(NC(=O)C4(C(=O)Nc5ccc(F)cc5)CC4)cc3)c2cc1OC [cabozantinib, N′1-{4-[(6,7-dimethoxyquinolin-4-yl)oxy]phenyl}-N1-(4-fluorophenyl)cyclopropane-1,1-dicarboxamide]
IC50 (MET): 2 nM
Oxidation of cabozantinib by FMO 5 (FMO5): ineffective
Bound by proteins in human plasma [1]: ≥ 99.7%
Oxidation of cabozantinib by aldehyde oxidase (aldehyde oxidase): ineffective
